This is an account of results in patent publication US20240148821A1, “PHARMACEUTICAL USE OF CYCLIC PEPTIDE COMPOUND” (CHUGAI SEIYAKU KABUSHIKI KAISHA, priority 2021, published 2024).

SMILES strings stand for the structures. Numbered stars: 1 amine (or outer) side, 2 acyl side, 3 side chain; on linkers, the order of the positions; unused ones are H or OH. Bridge positions count the residues as written; N and C are the ends. Square brackets hold non-standard residues; d marks the D form. Peptide text beside a SMILES is read from it. * marks the point of attachment. hPhe(3,5-F2-4-CF3) = N[C@@H](CCc1cc(F)c(C(F)(F)F)c(F)c1)C(=O)O; hPhe(3-Cl-4-CF3) = N[C@@H](CCc1ccc(C(F)(F)F)c(Cl)c1)C(=O)O; NEtPhe(4-CF3) = CCN[C@@H](Cc1ccc(C(F)(F)F)cc1)C(=O)O; NMePhe(4-CF3) = CN[C@@H](Cc1ccc(C(F)(F)F)cc1)C(=O)O; NPrAsp = CCCN([C@@H](CC(=O)[*:3])C(=O)[*:2])[*:1]; NEtPhe(4-Me) = CCN[C@@H](Cc1ccc(C)cc1)C(=O)O; NMeAbu(4,4,4-F3) = CN[C@@H](CC(F)(F)F)C(=O)O; NMePhe(4-Me) = CN[C@@H](Cc1ccc(C)cc1)C(=O)O; NMedβ3hAla = C[C@H](CC(=O)[*:2])N(C)[*:1]; NMeGly(cPent) = CN[C@H](C(=O)O)C1CCCC1; NMeGly(cBu) = CN[C@H](C(=O)O)C1CCC1; NMeCha = CN[C@@H](CC1CCCCC1)C(=O)O; Hyp = O=C(O)[C@@H]1C[C@@H](O)CN1; NMeChg = CN[C@H](C(=O)O)C1CCCCC1; NMeI = CC[C@H](C)[C@H](NC)C(=O)O; NMeE = CN[C@@H](CCC(=O)O)C(=O)O; NMeD = CN[C@@H](CC(=O)O)C(=O)O; CH2CONHtBu = CC(C)(C)NC(=O)C*; NMeL = CN[C@@H](CC(C)C)C(=O)O; NMeV = CN[C@H](C(=O)O)C(C)C; d(β3hA) = C[C@@H](N)CC(=O)O; NMeS = CN[C@@H](CO)C(=O)O; Morpholide = C1CN(*)CCO1; NMeA = CN[C@@H](C)C(=O)O; Piperidide = C1CCN(*)CC1; Pyrrolidide = C1CCN(*)C1; Ac5c = NC1(C(=O)O)CCCC1; Aze = O=C(O)[C@@H]1CCN1; Sar = CNCC(=O)O

The target in experiment [1] is protein-protein interaction between Kras and SOS1 (biotin-tagged human Kras loaded with GDP, His-tagged human SOS1) (Homo sapiens (Human), UniProt P01116, G12D). Briefly: Protein-protein interaction inhibition between Kras and SOS1 (KrasG12D-SOS PPI) using AlphaScreen.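 Note: kras produced in E. coli, Ni-coupled donor beads and streptavidin acceptor beads, excitation 680 nm with emission detected at 520–620 nm via singlet oxygen transfer.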 It counts as biochemical. To be noted: AlphaScreen; biotin-tagged human Kras loaded with GDP, His-tagged human SOS1; read-out: KRAS G12D-SOS PPI IC50. A general note: Alpha assays give light when donor and acceptor beads are brought close together.

In experiment [2] the test system is Human pancreatic cancer cell line AsPC-1 (G12D mutation Kras). Kind of experiment: AsPC-1 cell growth inhibition (AsPC-1 CGI). It counts as cell-based. The settings on record: read-out: AsPC-1 cell growth inhibition, 50% growth inhibitory concentration (IC50 value); 96 hours, CellTiter-Glo, values classified in ranges. On the technique in general: In ATP-based viability assays light output follows the ATP content of the culture.
Protocol: Test compounds were serially dilated with dimethyl sulfoxide, and 200 nL was then dispensed to a U-bottom 96-well plate using Labcyte Echo. […] The cell suspension was dispensed to a. plate containing a test compound at 100 μL per well and incubated at 37° C. in a 5% carbon dioxide gas incubator. 96 hours later, 80 μL of CellTiter-Glo (Promega) was added to each well and fluorescence was measured.

With `CCO[C@@H]1C[C@H]2C(=O)NC3(CCCC3)C(=O)N(C)[C@@H](C3CCCCC3)C(=O)N(C)[C@H](C(=O)N3CCOCC3)CC(=O)N(C)[C@@H](CC(F)(F)F)C(=O)N[C@@H]([C@@H](C)CC)C(=O)N(C)CC(=O)N(C)CC(=O)N(C)[C@@H](Cc3ccc(C(F)(F)F)cc3)C(=O)N(C)CC(=O)N[C@@H](CCc3ccc(C(F)(F)F)c(Cl)c3)C(=O)N2C1` [Compound 1206] ([NMeAbu(4,4,4-F3)]I[Sar][Sar][NMePhe(4-CF3)][Sar][hPhe(3-Cl-4-CF3)][Hyp](Et)[Ac5c][NMeChg][NMeD]-Morpholide; lactam N-11), the values for the IC50 in experiment [1] and in experiment [2] were 0.57 nM and not above 20 nM, respectively.
The like results for `CC[C@H](C)[C@@H]1NC(=O)[C@H](CC(C)C)N(C)C(=O)C[C@@H](C(=O)N(C)C)N(C)C(=O)[C@H](C2CCCC2)N(C)C(=O)C2(CCCC2)NC(=O)[C@@H]2CCCN2C(=O)[C@H](CCc2ccc(C(F)(F)F)c(Cl)c2)NC(=O)CN(C)C(=O)[C@H](Cc2ccc(C)cc2)N(CC)C(=O)[C@@H]2CCN2C(=O)[C@H](C)N(C)C1=O` [Compound 279] ([NMeL]I[NMeA][Aze][NEtPhe(4-Me)][Sar][hPhe(3-Cl-4-CF3)]P[Ac5c][NMeGly(cPent)][NMeD]-NMe2; lactam N-11) were, in that order, 0.99 nM and not above 20 nM.
The like results for `CC[C@H](C)[C@@H]1NC(=O)[C@H](CC(C)C)N(C)C(=O)C[C@@H](C(=O)N2CCCC2)N(C)C(=O)[C@H]([C@@H](C)CC)N(C)C(=O)C2(CCCC2)NC(=O)[C@@H]2CCCN2C(=O)[C@H](CCc2ccc(C(F)(F)F)c(Cl)c2)NC(=O)CN(C)C(=O)[C@H](Cc2ccc(C)cc2)N(C)C(=O)[C@@H]2CCN2C(=O)[C@H](C)N(C)C1=O` [Compound 1645] ([NMeL]I[NMeA][Aze][NMePhe(4-Me)][Sar][hPhe(3-Cl-4-CF3)]P[Ac5c][NMeI][NMeD]-Pyrrolidide; lactam N-11) were, in that order, 1 nM and not above 20 nM.
The like results for `CC[C@H](C)[C@@H]1NC(=O)[C@H](CC(C)C)N(C)C(=O)C[C@@H](C(=O)N2CCCCC2)N(C)C(=O)[C@H](C2CCCCC2)N(C)C(=O)C2(CCCC2)NC(=O)[C@H](COCC(=O)NC(C)(C)C)N(C)C(=O)[C@H](CCc2ccc(C(F)(F)F)c(Cl)c2)NC(=O)CN(C)C(=O)[C@H](CC2CCCCC2)N(C)C(=O)CN(C)C(=O)CN(C)C1=O` [Compound 727] ([NMeL]I[Sar][Sar][NMeCha][Sar][hPhe(3-Cl-4-CF3)][NMeS](CH2CONHtBu)[Ac5c][NMeChg][NMeD]-Piperidide; lactam N-11) were, in that order, 6.9 nM and more than 500 nM.
With `CC[C@H](C)[C@@H]1NC(=O)[C@H](CC(C)C)N(C)C(=O)C[C@@H](C)NC(=O)[C@H](C(C)C)N(C)C(=O)C2(CCCC2)NC(=O)[C@@H]2CCCN2C(=O)[C@H](CCc2ccc(C(F)(F)F)c(Cl)c2)NC(=O)CN(C)C(=O)[C@H](CC2CCCCC2)N(C)C(=O)[C@@H]2CCN2C(=O)[C@H](CCC(=O)NC)N(C)C1=O` [Compound 810] (cyclo([Ac5c][NMeV][d(β3hA)][NMeL]I[NMeE](NHMe)[Aze][NMeCha][Sar][hPhe(3-Cl-4-CF3)]P)), the IC50 was 49 nM in experiment [1] and more than 500 nM in experiment [2].
The like results for `CCCN1C(=O)[C@H](C2CCCC2)N(C)C(=O)C2(CCCC2)NC(=O)[C@@H]2CCCN2C(=O)[C@H](CCc2ccc(C(F)(F)F)c(Cl)c2)NC(=O)CN(C)C(=O)[C@H](C2CCC2)N(C)C(=O)[C@@H]2CCN2C(=O)[C@H](C)N(C)C(=O)[C@H]([C@@H](C)CC)NC(=O)[C@H](CC(C)C)N(C)C(=O)C[C@H]1C(=O)N1CCCCC1` [Compound 524] ([NMeL]I[NMeA][Aze][NMeGly(cBu)][Sar][hPhe(3-Cl-4-CF3)]P[Ac5c][NMeGly(cPent)][NPrAsp]-Piperidide; lactam N-11) were, in that order, 82 nM and more than 500 nM.
The like results for `CCO[C@@H]1C[C@H]2C(=O)NC3(CCCC3)C(=O)N(C)[C@@H](C3CCCCC3)C(=O)N(C)[C@H](C(=O)N3CCCC3)CC(=O)N(C)[C@@H](CC(F)(F)F)C(=O)N[C@@H]([C@@H](C)CC)C(=O)N(C)CC(=O)N(C)CC(=O)N(C)[C@@H](Cc3ccc(C)cc3)C(=O)N(C)CC(=O)N[C@@H](CCc3ccc(C(F)(F)F)c(Cl)c3)C(=O)N2C1` [Compound 1339] ([NMeAbu(4,4,4-F3)]I[Sar][Sar][NMePhe(4-Me)][Sar][hPhe(3-Cl-4-CF3)][Hyp](Et)[Ac5c][NMeChg][NMeD]-Pyrrolidide; lactam N-11) were, in that order, 0.57 nM and not above 20 nM.
The like results for `CCO[C@@H]1C[C@H]2C(=O)NC3(CCCC3)C(=O)N(C)[C@@H]([C@@H](C)CC)C(=O)N(C)[C@H](C)CC(=O)N(C)[C@@H](CC(C)C)C(=O)N[C@@H]([C@@H](C)CC)C(=O)N(C)[C@@H](C)C(=O)N3CC[C@H]3C(=O)N(CC)[C@@H](Cc3ccc(C(F)(F)F)cc3)C(=O)N(C)CC(=O)N[C@@H](CCc3cc(F)c(C(F)(F)F)c(F)c3)C(=O)N2C1` [Compound 374] (cyclo([Ac5c][NMeI][NMedβ3hAla][NMeL]I[NMeA][Aze][NEtPhe(4-CF3)][Sar][hPhe(3,5-F2-4-CF3)][Hyp](Et))) were, in that order, 6.5 nM and not above 20 nM.
